Measured values taken from EP3461349A1, “NOVEL DITERPENE GLYCOSIDES AS SWEETENERS OR SWEETENER ENHANCER” (Analyticon Discovery GmbH, priority 2017, dated 2019).
Read-outs that look alike come from different tables or passages of the source.

Tests used:
[1] = literature; printed as "often >100x sweeter than sucrose"; cited from earlier work
[2] = quoted from Tanaka et al.; cited from earlier work
[3] = Solubility in non-carbonated mineral water at the test concentration; settings: 0.4 mg/ml (400 ppm) in non-carbonated mineral water
Protocol: The isolated pure compounds were dissolved in non-carbonated mineral water ("Fonsana Quelle") in a concentration of 0.4 mg/ml (400 ppm).

[4] = system: panel of 4 panelists; experiment: Organoleptic test against sucrose and baiyunoside (taste panel); type: in vivo; set-up: key to compared to sucrose*: 3: sweeter than the control solution; 2: sweetness comparable with the control solution; 1: less sweet than the control solution but still sweet; settings: for comment: bitterness / off-taste / comment: lingering / persistence of sweet taste / comment: cooling effect / comment: sweetness relative to Baiyunoside: 0.4 mg/ml (400 ppm) in non-carbonated mineral water; for comment: bitterness / off-taste / comment: lingering / persistence of sweet taste: compounds compared with Baiyunoside; for compared to sucrose*: sweetness score, 0.4 mg/ml (400 ppm) in non-carbonated mineral water vs sucrose 20 mg/ml, 4 panelists
Excerpt: Organoleptic test of the compounds of formula (I) against sucrose and baiyunoside

Row | Molecule | sweetness relative to sucrose [1] [x] | duration of sweetness [2] | sweetness relative to sucrose [2] | solubility [3] | comment: bitterness / off-taste [4] | comment: lingering / persistence of sweet taste [4] | sweetness compared with the sucrose solution (in words) ([4]; Baiyunoside solution at nominal 0.4 mg/ml, not completely dissolved, vs sucrose 20 mg/ml) | comment: cooling effect [4] | comment: sweetness relative to Baiyunoside [4] | compared to sucrose* [4]
1 | C[C@H](CC[C@@H](O[C@@H]1O[C@H](CO[C@@H]2O[C@H](CO)[C@@H](O)[C@H](O)[C@H]2O)[C@@H](O)[C@H](O)[C@H]1O[C@@H]1O[C@H](CO)[C@@H](O)[C@H](O)[C@H]1O)C(C)(C)O)[C@H]1CC[C@@]2(C)[C@@H]3CC=C4[C@@H](CC[C@H](O[C@@H]5O[C@H](CO[C@@H]6O[C@H](CO)[C@@H](O)[C@H](O)[C@H]6O)[C@@H](O)[C@H](O)[C@H]5O)C4(C)C)[C@]3(C)[C@H](O)C[C@]12C [mogroside V] | > 100 | – | – | – | – | – | – | – | – | –
2 | Baiyunoside [reference compound] | – | more than one h | about 500 times | not completely soluble | bitter and licorice off-taste | very long lingering and persistent sweet taste | comparable to the sweetness of the sucrose solution | – | – | –
3 | C[C@H](CC[C@@H](O[C@@H]1O[C@H](CO[C@@H]2O[C@H](CO)[C@@H](O)[C@H](O)[C@H]2O)[C@@H](O)[C@H](O)[C@H]1O[C@@H]1O[C@H](CO)[C@@H](O)[C@H](O)[C@H]1O)C(C)(C)O)[C@H]1CC[C@@]2(C)[C@@H]3CC=C4[C@@H](CC[C@H](O[C@@H]5O[C@H](CO)[C@@H](O[C@@H]6O[C@H](CO)[C@@H](O)[C@H](O)[C@H]6O)[C@H](O)[C@H]5O)C4(C)C)[C@]3(C)[C@H](O)C[C@]12C [iso-mogroside V] | > 100 | – | – | – | – | – | – | – | – | –
4 | Baiyunol-3-(2'-arabinopyranosyl)-glucoside [Compound D] | – | – | – | not completely soluble but better soluble than Baiyunoisde | as bitter as Baiyunoside | less lingering | – | Shows a remarkable cooling effect. | Sweeter | 3
5 | CC1=C(CCc2ccoc2)C2(C)CCC(OC3OC(CO)C(O)C(OS(=O)(=O)O)C3OC3OCC(O)C(O)C3O)C(C)(C)C2CC1 (centres unmarked) [Compound B, Baiyunoside-3'-sulfate] | – | – | – | – | less bitter | less lingering | – | Shows a remarkable cooling effect. | Sweeter | 3
6 | CC1=C(CCc2ccoc2)C2(C)CCC(OC3OC(COS(=O)(=O)O)C(O)C(O)C3O)C(C)(C)C2CC1 (centres unmarked) [Compound C, Baiyunol-3-glucosyl-6'-sulfate] | – | – | – | – | less bitter | less lingering | – | Shows a remarkable cooling effect. | Sweeter | 3
7 | CC1=C(CCc2ccoc2)C2(C)CCC(OC3OC(COS(=O)(=O)O)C(O)C(O)C3OC3OCC(O)C(O)C3O)C(C)(C)C2CC1 (centres unmarked) [Compound A, Baiyunoside-6'-sulfate] | – | – | – | – | less bitter | less lingering | – | Shows a remarkable cooling effect. | Sweeter | 3
